This is an account of results in ChEMBL document CHEMBL1201862, “PubChem BioAssay data set” (2004).

In one data set the target is Cytochrome P450 2C9 (Homo sapiens, UniProt P11712).
Data set [1] has as its target T1, Heat shock factor protein 1 (Mus musculus, UniProt P38532).
T1 sequence (P38532 whole entry): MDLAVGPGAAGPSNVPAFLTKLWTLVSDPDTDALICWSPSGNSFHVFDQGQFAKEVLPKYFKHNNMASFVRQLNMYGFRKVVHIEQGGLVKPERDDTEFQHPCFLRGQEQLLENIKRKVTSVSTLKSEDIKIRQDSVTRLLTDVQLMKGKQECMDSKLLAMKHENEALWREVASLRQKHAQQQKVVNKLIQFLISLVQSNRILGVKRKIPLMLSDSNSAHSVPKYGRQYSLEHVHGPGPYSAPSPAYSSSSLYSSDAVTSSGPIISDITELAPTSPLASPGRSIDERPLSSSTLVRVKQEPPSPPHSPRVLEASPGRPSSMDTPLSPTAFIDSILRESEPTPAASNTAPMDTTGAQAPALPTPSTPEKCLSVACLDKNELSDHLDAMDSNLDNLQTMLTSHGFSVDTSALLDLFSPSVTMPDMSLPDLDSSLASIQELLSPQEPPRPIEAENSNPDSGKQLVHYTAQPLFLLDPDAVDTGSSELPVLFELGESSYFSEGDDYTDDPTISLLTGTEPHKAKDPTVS
The data set can be described thus: decrease of HSF1-responsive luciferase luminescence – cell-based, NIH3T3, dose retest, confirmation (AID 2382).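 Note: NIH3T3 fibroblasts with HSF1-driven luciferase reporter stressed by proteasome inhibitor MG132; luminescence from HSF1-driven luciferase expression after 8 hours of MG132 stress.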 The data set is classed as functional.

Data set [2] deals with Streptococcus sp. 'group A'. The data set can be described thus: Streptococcus pyogenes SK(-)GAS viability under kanamycin – luminescence, BacTiterGlo, confirmation, counter-screen for streptokinase expression inhibitor project, dose response (AID 1900). The data set is classed as functional, organism-based.
A further data set deals with T2, Streptokinase A (Streptococcus pyogenes serotype M1, UniProt P10520).
T2 sequence (P10520 whole entry): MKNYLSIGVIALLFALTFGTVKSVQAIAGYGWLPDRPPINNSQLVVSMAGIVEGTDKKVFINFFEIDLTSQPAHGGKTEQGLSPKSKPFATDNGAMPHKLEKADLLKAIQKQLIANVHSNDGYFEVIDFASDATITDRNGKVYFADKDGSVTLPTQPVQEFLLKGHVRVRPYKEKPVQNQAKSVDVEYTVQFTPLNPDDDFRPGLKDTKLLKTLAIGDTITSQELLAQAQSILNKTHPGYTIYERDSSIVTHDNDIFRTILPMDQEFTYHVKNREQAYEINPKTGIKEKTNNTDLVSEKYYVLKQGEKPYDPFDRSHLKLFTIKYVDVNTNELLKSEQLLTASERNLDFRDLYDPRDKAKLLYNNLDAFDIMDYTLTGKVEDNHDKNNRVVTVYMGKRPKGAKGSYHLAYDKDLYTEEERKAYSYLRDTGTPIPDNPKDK
The data set can be described thus: viability-normalized secreted streptokinase activity reduction – plasminogen activation absorbance, OD405, dose response (AID 1914).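 Note: secreted streptokinase activity via plasminogen activation per viability signal from cell pellet.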 The data set is classed as functional, Streptococcus pyogenes M1 GAS.

The subject of a further data set is Streptococcus. The data set can be described thus: GAS UMAA2166 growth inhibition – luminescence, BacTiterGlo, counter-screen for streptokinase expression inhibitor project, dose response (AID 1915).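 Note: potency for reduction of bacterial viability or growth.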 The data set is classed as functional, organism-based.
The next data set concerns the target Cytochrome P450 2C19 (Homo sapiens, UniProt P33261). The data set can be described thus: Cytochrome panel assay with activity outcomes. Panel member name: p450-cyp2c19 Compounds with AC50 equal or less than 10 uM are considered active. The data set is classed as functional.
A short description of data set [3]: Trypanosoma cruzi growth suppression in host cells – NIH3T3 host cells, beta-gal luminescence, confirmation (AID 2044).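 Note: intracellular parasites grown in NIH/3T3 mouse fibroblasts as host cells; luminescent beta-galactosidase reporter signal from transgenic T. cruzi replicating inside host cells; inhibitors lower the luminescence signal.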 The data set is classed as functional, cell-based.
Data set [4] in a line: NIH3T3 cell viability loss – ATP luminescence, mouse fibroblasts, counter-screen, dose response (AID 2010).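 Note: cells exposed to compound for about 90 hours before reading.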 The data set is classed as functional, cell-based.

SMILES strings stand for the structures. Active and inactive are the calls of the source.

Sequence of Cytochrome P450 2C19 (P33261 whole entry): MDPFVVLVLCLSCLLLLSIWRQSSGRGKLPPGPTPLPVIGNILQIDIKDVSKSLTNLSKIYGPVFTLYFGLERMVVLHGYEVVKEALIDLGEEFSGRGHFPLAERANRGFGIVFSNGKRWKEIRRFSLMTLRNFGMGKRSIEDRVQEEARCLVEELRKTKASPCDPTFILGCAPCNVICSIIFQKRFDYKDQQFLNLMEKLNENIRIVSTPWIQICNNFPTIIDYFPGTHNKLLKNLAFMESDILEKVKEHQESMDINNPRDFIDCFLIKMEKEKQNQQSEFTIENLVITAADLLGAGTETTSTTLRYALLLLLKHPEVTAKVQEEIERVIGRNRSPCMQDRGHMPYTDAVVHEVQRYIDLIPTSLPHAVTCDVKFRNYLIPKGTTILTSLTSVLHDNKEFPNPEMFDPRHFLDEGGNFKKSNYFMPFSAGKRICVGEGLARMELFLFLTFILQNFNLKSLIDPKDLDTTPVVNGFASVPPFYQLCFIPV
Sequence of Cytochrome P450 2C9 (P11712 whole entry): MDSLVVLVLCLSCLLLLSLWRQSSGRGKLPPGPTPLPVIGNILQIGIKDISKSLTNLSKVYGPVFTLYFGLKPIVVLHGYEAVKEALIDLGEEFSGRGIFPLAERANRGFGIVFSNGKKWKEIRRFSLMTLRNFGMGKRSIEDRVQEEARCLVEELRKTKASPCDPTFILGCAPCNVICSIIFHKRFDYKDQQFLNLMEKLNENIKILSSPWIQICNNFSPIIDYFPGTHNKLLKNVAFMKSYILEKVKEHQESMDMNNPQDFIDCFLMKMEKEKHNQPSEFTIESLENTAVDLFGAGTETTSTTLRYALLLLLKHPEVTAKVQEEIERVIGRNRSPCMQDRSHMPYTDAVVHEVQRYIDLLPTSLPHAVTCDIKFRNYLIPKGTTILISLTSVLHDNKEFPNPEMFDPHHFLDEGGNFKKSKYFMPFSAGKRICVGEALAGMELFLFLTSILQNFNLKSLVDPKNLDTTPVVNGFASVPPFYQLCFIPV

Turning to `CCOC(=O)c1c(-c2ccccc2)nc2ccc(Cl)cn12`, on Cytochrome P450 2C9, the AC50 is 15.8 µM (inconclusive).
Regarding `CSc1nc(Cc2ccccc2)cc(=O)[nH]1`, the EC50 in data set [1] was > 195 µM (not active).
With `CN(CCc1ccccn1)c1ccc2c(c1)Cc1ccccc1-2`, the concentration at half-maximal activity (AC50) at Cytochrome P450 2C9 was 7.94 µM (inconclusive).
Consider `COc1ccc(Cl)cc1C(=O)NNC(=S)NC(=O)c1cc(-c2ccccc2)nc2ccccc12`, for which the EC50 in data set [2] was 1.31 µM (active); on Streptokinase A, > 150 µM (not active); in the data set on Streptococcus, > 150 µM (inconclusive).
For `COC(=O)c1ccc(NC(=O)c2cc3sccc3n2C)cc1`, on Cytochrome P450 2C9, the AC50 was 10 µM (inconclusive).
As to `CCCCNC(=O)c1onc(CSc2cccc(Cl)c2)c1C(=O)O`, the EC50 in data set [1] is listed as > 195 µM (not active).
Same read-out and setting: the value for `Fc1ccccc1N=C(S)Nc1ccc(CN2CCOCC2)cc1` was 68.4 µM (active).
Still for that read-out and setting: the result for `N#Cc1c(N)n(-c2ccccc2N)c2nc3ccccc3nc12` reads 11.2 µM (active).
For `COc1ccc(Cl)cc1C(=O)NNC(=S)NC(=O)c1ccc(F)c(F)c1`, the EC50 in data set [2] was 0.217 µM (active); in the data set on Streptococcus, 1.37 µM (active).
Consider `CC(=O)c1cc(C#N)c(Oc2cccc(C(F)(F)F)c2)nc1C`, for which, on Cytochrome P450 2C9, the AC50 was 25.1 µM (inconclusive).
The same measure, in the same setting: the result for `O=C(O)c1cc(-c2ccc(-c3ccc(-c4cc(C(=O)O)c5cc(Cl)ccc5n4)cc3)cc2)nc2ccc(Cl)cc12` reads 3.16 µM (inconclusive).
With `O=C(NCC1CCCO1)C(c1cccnc1)N(C(=O)Cc1cccs1)c1cccnc1` (stereo unspecified), on Cytochrome P450 2C19 (read-out: AC50), the AC50 is 31.6 µM (inconclusive).
Take `Cc1cc(NC2CCCC2)n2nc(C)c(-c3ccccc3)c2n1`: the figures for the EC50 in data set [3] and in data set [4] were 3.4 µM (active) and > 60 µM (not active), respectively.
For `Cc1cc(C)cc(NS(=O)(=O)c2ccc(NC(=S)NC(=O)c3cccs3)cc2)c1`, the EC50 in data set [2] was 4.5 µM (active); on Streptokinase A, 11.7 µM (active); with Streptococcus, 50.1 µM (active).
As for `Nc1ccccc1SCC(=O)Nc1ccc2c(c1)OCCO2`, in data set [1], the EC50 was > 195 µM (not active).
For `CCCC[C@@H]1CNC(=O)C(=O)N1CCc1cccc2ccccc12`, the EC50 in data set [1] was > 195 µM (not active).
Same read-out and setting: the value for `Cc1ccc(SCCCn2cncn2)cc1` was > 195 µM (not active); that for `CC(C)(C)NC(=O)C1CC(=O)OC12CCOC(C)(C)C2` (stereo unspecified) was > 195 µM (not active).
For `COC(=O)[C@H]1C[C@@H]1[C@H](NC(=O)c1ccccc1)c1ccccc1`, on Cytochrome P450 2C9, the AC50 was 39.8 µM (inconclusive).
Take `CCn1c(SCC(=O)Nc2sc3c(c2C#N)CCCC3)nnc1-c1ccco1`: the EC50 in data set [3] was 1.89 µM (active); in data set [4], > 60 µM (inconclusive).
For `Cc1cccc(C(=O)NC2CCN(C(=O)Nc3ccc(F)cc3)CC2)c1`, the EC50 in data set [1] is 32.7 µM (active).
In the case of `C[C@H](CCC(=O)NN)[C@@H]1CC[C@@H]2[C@H]3CC[C@H]4C[C@@H](O)CC[C@@]4(C)[C@@H]3CC[C@]21C`, the half-maximal activity concentration (AC50) on Cytochrome P450 2C19 (read-out: AC50) was 3.16 µM (inconclusive).
Turning to `Cc1nn(Cc2ccccc2)c(C)c1NC(=O)c1noc2c1CCc1ccccc1-2`, the EC50 in data set [1] is reported as > 195 µM (not active).
For `Brc1ccc(C2C3=C(Nc4ncnn42)c2ccccc2OC3c2ccncc2)cc1` (stereo unspecified), the EC50 in data set [3] was 4.12 µM (active); in data set [2], 22.4 µM (active); on Streptokinase A, > 150 µM (not active); in data set [4], > 60 µM (not active); in the data set on Streptococcus, 21.5 µM (active).
Consider `CC(C)N1CCN(Cc2ccc3nsnc3c2)CC1CCO` (stereo unspecified), for which the concentration for a half-maximal effect (EC50) in data set [1] was > 195 µM (not active).
In the case of `Oc1ccccc1C1CCCCC1c1ccccc1` (stereo unspecified), the results for the EC50 (in data set [2]; on Streptokinase A; in the data set on Streptococcus) were 3.83 µM (active), 12.7 µM (active) and 50.4 µM (active), respectively.
On the same counts, the results for `COc1ccc(-c2oc(NC(=O)CSc3nc[nH]n3)c(C#N)c2-c2ccc(OC)cc2)cc1` are 2.37 µM (active), 1.08 µM (active) and 16 µM (active).
On to `COc1cccc(-c2cncnc2NC2CCNCC2)c1`, for which the AC50 entry on Cytochrome P450 2C19 is on record as “inconclusive”.
Consider `CCCNC(=O)OC[C@@H]1O[C@H](CCO/N=C(\C)CCN2CCc3nc(-c4ccccc4)c(-c4ccccc4)cc3C2)C=C[C@@H]1Oc1ccc(OC)cc1`, for which, on Cytochrome P450 2C19 (read-out: AC50), the AC50 is 0.316 µM (inconclusive).
For the compound `Cc1ccsc1C(=O)C1CCCN(Cc2ccc(-n3cccn3)cc2)C1` (stereo unspecified), the EC50 in data set [3] was 0.201 µM (active); in data set [4], > 60 µM (inconclusive).
On to `COc1ccccc1NC(=O)c1ccc(N2CC3CC(C2)c2cccc(=O)n2C3)c(NC(=O)c2ccncc2)c1` (stereo unspecified), for which the concentration for a half-maximal effect (EC50) in data set [1] is reported as > 195 µM (not active).
On to `CN1CCN(c2ccc(S(=O)(=O)N3CCCCC3)cc2[N+](=O)[O-])CC1`, for which the EC50 in data set [3] is 0.81 µM (active); in data set [4], > 60 µM (not active).
On the same counts, the results for `O=C(c1ccc2c(c1)OCO2)C1CCCN(Cc2cccn2-c2cccnc2)C1` (stereo unspecified) are 3.29 µM (active) and > 60 µM (not active).
For `O=C(Nc1ccccc1Cc1ccccc1)c1ccncc1`, in that order: 0.802 µM (active) and > 60 µM (not active).
For `Cc1ccccc1OCCC(=O)OCC(=O)N1c2ccccc2NC(=O)C1(C)C`, in data set [1], the EC50 is > 195 µM (not active).
Regarding `CS(=O)(=O)c1cccc(NC(=O)c2ccc(Cl)c(Cl)c2)c1`, the results for the concentration giving a half-maximal response (EC50) in data set [3] and in data set [4] were 3.1 µM (active) and > 30 µM (not active), respectively.
As for `COc1cc(OC)cc(C(=O)N[C@H](C(=O)OCC(=O)N2CCc3ccccc32)C(C)C)c1`, in data set [1], the half-maximal effective concentration (EC50) is on record as > 195 µM (not active).
Consider `CCCCCCN1N=C(C)C(C(=O)c2ccc(Cl)cc2)C1=O` (stereo unspecified), for which the EC50 in data set [2] was 2.44 µM (active); on Streptokinase A, > 150 µM (not active); with Streptococcus it was 29.5 µM (active).
On the same counts, the results for `CCOC(=O)c1ccc(NC(=O)c2[nH]cnc2C(=O)N[C@@H](Cc2ccccc2)C(=O)OC(C)(C)C)cc1` are 5.26 µM (active), > 150 µM (not active) and 44.9 µM (active).
On the same counts, the results for `COc1ccc(-c2[nH]ncc2N=Nc2cc(C)cc(C)c2)cc1` are 23.1 µM (active), > 150 µM (not active) and > 150 µM (not active).
For the compound `O=C(CNCCc1ccc(F)cc1)Nc1cc(F)ccc1F`, the EC50 in data set [1] is > 195 µM (not active).
On the same count and under the same terms, the result for `CC(OC(=O)CN1C(=O)NC2(CCCC2)C1=O)C(=O)c1ccccc1` (stereo unspecified) reads > 195 µM (not active).
For the compound `Cn1cccc1C(=O)N1CCC2(CCN(Cc3ccc(C#N)cc3)CC2)CC1`, the AC50 at Cytochrome P450 2C19 (read-out: AC50) was 0.2 µM (inconclusive).
As for `CC(=O)c1c(-c2ccc(Cl)cc2Cl)noc1C`, the EC50 in data set [1] is given as > 195 µM (not active).
`CCC1CC(CSc2nc[nH]n2)OC1=O` (stereo unspecified): the AC50 on Cytochrome P450 2C9 was 25.1 µM (inconclusive).
As to `CCOC(=O)c1c(-c2ccc(OC)cc2)csc1NC=C1C(=O)CCCC1=O`, the EC50 is 66 µM (active) in data set [2], > 150 µM (not active) at Streptokinase A and 32.7 µM (active) in the data set with Streptococcus.
For the compound `Cc1c(C#N)c(/N=C/N(C)C)c(C(=O)c2ccc(Br)cc2)n1-c1ccc(Cl)cc1`, the EC50 in data set [3] is 2.8 µM (active); in data set [4] it was > 60 µM (inconclusive).
As for `Cc1nn(-c2ccccc2)c(C)c1/C=N/NC(=O)c1cc(C23CC4CC(CC(C4)C2)C3)[nH]n1`, the results for the EC50 (in data set [2]; on Streptokinase A; with Streptococcus) were 5.31 µM (active), 10.3 µM (active) and 46.2 µM (active), respectively.
On the same counts, the results for `Oc1ccccc1/N=C/c1c(O)ccc2oc3c(c12)CCCC3` are 7.61 µM (active), > 150 µM (not active) and 10.6 µM (active).
As to `CCO/C(O)=C1\C(C)=Nc2sc(C(=O)c3ccc(Br)cc3)c(N)c2C1c1ccc(C(=O)OC)cc1` (stereo unspecified), the EC50 in data set [3] was 1.09 µM (active); in data set [4], 15.8 µM (active).
For `COc1ccc(Cl)cc1Nc1nc(-c2cccnc2)cs1`, in that order: 3.22 µM (active) and 14 µM (active).
